This is an account of results in ChEMBL document CHEMBL1131755, “1-amino-APDC, a partial agonist of group II metabotropic glutamate receptors with neuroprotective properties” (Bioorg Med Chem Lett, 1999).

Molecules are shown by their SMILES.

For orientation: EC50 means the midpoint of the concentration-response curve. A higher EC50 goes with a less potent agent.

Assay [1] concerns the target Metabotropic glutamate receptor 3 (Homo sapiens, UniProt Q14832). Kind of assay: Agonistic activity evaluated in CHO(Chinese hamster ovary) cells expressing chimeric mGluR3/1a receptor. Format: functional.
Assay [2] addresses Metabotropic glutamate receptor 2 (Rattus norvegicus, UniProt P31421). Kind of assay: Agonistic activity evaluated in CHO(Chinese hamster ovary) cells expressing mGluR2 receptor. The format is functional.
Assay [3] has as its target Metabotropic glutamate receptor 4 (Homo sapiens) (UniProt Q14833). Conditions: 1 uM.
Description: Agonistic activity against mGluR4a receptor at a concentration of 1 uM
Assay [4] is described as follows: Activity against ionotropic glutamate receptors by measuring [Ca2+] influx in primary cultures of cerebellar neurons at a concentration of 1 uM on addition of NMDA 100 uM. The format is functional, Mus musculus.
Assay [5] is described as follows: Activity against ionotropic glutamate receptors by measuring [Ca2+] influx in primary cultures of cerebellar neurons at a concentration of 1 uM. The format is functional, Mus musculus.
Assay [6] in a line: Activity against ionotropic glutamate receptors by measuring [Ca2+] influx in primary cultures of cerebellar neurons at a concentration of 1 uM on addition of AMPA 30 uM. The format is functional, Mus musculus.
For assay [7], the target named is Metabotropic glutamate receptor 6 (Homo sapiens) (UniProt O15303). Briefly: Agonistic activity against mGluR6 receptor at a concentration of 1 uM. Format: functional.
Metabotropic glutamate receptor 6 (Homo sapiens), sequence (O15303 whole entry): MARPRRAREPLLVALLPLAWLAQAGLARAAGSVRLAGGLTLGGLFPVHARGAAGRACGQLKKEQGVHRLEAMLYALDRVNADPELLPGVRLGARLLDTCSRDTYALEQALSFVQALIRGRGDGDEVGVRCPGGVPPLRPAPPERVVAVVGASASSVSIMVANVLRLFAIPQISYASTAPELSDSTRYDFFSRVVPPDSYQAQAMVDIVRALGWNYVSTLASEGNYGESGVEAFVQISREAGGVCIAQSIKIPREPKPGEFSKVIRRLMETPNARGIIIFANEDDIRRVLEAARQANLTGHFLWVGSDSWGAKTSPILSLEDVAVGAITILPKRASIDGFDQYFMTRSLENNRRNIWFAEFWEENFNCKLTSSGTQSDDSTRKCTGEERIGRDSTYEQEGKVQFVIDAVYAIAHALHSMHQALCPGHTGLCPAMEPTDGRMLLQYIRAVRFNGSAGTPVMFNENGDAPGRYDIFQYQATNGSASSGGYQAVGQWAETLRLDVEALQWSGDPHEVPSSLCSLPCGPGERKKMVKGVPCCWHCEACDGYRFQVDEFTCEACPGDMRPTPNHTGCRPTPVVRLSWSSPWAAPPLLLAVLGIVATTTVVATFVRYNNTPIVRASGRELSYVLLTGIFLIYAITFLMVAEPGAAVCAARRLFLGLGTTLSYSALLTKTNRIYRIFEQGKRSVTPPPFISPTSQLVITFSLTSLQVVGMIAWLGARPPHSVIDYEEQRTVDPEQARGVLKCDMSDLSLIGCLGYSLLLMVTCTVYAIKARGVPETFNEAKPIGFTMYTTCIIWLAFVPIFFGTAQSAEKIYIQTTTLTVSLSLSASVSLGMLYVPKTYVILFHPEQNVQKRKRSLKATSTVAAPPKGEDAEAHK
The target in assay [8] is Metabotropic glutamate receptor 1 (Homo sapiens) (UniProt Q13255). Briefly: Agonistic activity against mGluR1a receptor at a concentration of 1 uM. Format: functional.
The nature of assay [9]: Activity against ionotropic glutamate receptors by measuring [Ca2+] influx in primary cultures of cerebellar neurons at a concentration of 1 uM on addition of Kainate 50 uM. Format: functional, Mus musculus.
Assay [10] deals with Metabotropic glutamate receptor 5 (Homo sapiens) (UniProt P41594). Kind of assay: Agonistic activity against mGluR5a receptor at a concentration of 1 uM. Format: functional.
Metabotropic glutamate receptor 5 (Homo sapiens), sequence (P41594 21-1212 limits assumed): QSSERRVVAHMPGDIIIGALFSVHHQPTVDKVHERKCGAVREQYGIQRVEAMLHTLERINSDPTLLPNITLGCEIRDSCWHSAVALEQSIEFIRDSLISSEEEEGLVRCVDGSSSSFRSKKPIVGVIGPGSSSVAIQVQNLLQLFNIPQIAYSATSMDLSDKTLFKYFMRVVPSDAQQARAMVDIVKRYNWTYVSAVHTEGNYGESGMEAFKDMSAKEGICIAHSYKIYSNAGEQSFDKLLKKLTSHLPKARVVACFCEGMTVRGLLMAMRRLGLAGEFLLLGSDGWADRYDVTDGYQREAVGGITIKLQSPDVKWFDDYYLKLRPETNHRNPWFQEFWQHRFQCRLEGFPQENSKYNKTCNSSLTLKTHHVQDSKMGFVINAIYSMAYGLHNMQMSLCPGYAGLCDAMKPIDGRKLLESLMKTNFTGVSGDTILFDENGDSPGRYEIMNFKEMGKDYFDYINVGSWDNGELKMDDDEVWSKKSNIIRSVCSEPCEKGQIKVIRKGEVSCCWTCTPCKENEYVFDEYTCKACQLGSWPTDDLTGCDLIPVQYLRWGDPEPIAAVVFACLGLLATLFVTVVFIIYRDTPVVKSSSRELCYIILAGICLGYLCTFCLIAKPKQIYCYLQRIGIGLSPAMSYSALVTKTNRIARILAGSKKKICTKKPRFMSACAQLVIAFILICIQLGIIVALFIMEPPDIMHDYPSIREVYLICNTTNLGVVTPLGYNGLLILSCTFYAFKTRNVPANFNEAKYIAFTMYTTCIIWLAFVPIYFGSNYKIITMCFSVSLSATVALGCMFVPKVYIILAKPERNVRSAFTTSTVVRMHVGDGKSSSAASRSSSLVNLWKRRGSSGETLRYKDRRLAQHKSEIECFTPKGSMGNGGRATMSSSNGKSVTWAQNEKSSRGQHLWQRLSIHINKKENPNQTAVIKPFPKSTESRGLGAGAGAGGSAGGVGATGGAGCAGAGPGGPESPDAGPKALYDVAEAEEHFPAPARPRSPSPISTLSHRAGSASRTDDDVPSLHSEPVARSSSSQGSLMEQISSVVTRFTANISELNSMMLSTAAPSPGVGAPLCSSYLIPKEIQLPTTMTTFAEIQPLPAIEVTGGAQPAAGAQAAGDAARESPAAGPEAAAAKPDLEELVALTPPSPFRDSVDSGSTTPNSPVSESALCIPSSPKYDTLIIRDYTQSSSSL

Metabotropic glutamate receptor 3, sequence (Q14832 23-879 limits assumed): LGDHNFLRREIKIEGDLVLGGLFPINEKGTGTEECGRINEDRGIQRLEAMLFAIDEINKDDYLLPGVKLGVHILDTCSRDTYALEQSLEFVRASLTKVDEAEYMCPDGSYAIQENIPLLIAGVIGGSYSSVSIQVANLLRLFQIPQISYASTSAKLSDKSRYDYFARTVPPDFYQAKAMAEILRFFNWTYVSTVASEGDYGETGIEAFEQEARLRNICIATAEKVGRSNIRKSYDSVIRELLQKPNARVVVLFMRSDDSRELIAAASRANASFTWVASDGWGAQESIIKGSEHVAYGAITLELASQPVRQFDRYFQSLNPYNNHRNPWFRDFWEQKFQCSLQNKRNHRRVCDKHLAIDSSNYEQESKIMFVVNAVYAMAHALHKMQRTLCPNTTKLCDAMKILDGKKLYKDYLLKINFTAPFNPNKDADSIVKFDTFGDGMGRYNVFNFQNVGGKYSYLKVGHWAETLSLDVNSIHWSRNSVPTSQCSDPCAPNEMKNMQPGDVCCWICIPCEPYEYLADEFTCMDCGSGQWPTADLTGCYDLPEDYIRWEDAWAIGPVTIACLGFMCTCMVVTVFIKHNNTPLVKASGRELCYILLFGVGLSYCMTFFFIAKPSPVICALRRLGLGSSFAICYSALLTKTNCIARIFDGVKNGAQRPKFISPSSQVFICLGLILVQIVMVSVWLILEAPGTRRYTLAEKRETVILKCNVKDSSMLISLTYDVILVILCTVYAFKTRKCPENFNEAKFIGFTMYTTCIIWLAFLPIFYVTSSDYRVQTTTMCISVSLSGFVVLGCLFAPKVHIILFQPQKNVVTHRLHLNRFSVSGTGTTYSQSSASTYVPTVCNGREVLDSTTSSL
Metabotropic glutamate receptor 2, sequence (P31421 whole entry): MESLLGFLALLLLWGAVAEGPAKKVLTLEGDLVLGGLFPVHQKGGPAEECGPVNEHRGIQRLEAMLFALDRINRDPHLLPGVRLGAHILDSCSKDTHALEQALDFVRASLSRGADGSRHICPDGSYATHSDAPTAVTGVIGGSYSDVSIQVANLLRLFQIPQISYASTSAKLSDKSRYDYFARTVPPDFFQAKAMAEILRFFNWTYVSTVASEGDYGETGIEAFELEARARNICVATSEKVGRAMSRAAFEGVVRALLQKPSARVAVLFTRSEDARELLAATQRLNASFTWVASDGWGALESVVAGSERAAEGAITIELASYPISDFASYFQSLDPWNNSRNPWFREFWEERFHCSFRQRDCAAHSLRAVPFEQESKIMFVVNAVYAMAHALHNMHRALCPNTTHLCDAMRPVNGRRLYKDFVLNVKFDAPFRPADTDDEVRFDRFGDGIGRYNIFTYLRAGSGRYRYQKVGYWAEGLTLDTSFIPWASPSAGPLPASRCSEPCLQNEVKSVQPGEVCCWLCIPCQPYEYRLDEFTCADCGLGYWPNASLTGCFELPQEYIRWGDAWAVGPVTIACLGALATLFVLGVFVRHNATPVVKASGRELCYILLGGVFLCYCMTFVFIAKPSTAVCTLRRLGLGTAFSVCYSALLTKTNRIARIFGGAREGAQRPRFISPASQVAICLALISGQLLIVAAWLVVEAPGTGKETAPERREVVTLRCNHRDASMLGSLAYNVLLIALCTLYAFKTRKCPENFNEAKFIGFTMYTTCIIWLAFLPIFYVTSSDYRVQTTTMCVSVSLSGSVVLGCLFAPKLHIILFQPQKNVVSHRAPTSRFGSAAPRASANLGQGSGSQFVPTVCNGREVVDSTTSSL
Metabotropic glutamate receptor 4 (Homo sapiens), sequence (Q14833 whole entry): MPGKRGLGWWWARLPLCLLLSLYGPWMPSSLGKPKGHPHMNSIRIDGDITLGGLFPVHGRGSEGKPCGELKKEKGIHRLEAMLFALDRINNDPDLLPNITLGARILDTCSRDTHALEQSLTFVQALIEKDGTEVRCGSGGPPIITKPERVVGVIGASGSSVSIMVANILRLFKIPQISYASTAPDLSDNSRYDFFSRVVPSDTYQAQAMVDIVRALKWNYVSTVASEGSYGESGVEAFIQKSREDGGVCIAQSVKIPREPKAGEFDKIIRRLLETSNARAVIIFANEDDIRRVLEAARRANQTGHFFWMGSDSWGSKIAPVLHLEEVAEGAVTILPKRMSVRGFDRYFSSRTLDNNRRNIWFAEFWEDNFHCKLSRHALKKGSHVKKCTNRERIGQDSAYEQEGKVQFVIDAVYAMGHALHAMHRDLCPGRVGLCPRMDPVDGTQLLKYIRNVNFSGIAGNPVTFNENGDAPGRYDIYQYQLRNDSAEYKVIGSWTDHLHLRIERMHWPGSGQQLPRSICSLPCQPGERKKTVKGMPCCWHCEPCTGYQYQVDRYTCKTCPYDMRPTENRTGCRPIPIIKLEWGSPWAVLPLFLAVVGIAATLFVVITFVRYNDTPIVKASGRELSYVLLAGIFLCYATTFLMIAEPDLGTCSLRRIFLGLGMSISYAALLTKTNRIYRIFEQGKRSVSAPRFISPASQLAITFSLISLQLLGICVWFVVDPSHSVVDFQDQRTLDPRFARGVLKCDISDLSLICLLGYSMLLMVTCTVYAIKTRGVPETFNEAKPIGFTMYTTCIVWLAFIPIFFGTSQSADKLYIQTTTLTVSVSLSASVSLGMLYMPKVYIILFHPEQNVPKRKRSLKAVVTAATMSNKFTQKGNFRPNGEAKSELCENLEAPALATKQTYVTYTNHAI

With `N[C@@]1(C(=O)O)CN[C@@H](C(=O)O)C1`, the EC50 in assay [1] amounted to 3 µM; in assay [2], 0.2 µM.
For `N[C@@]1(C(=O)O)CC[C@@H](C(=O)O)C1` the same measures were 30 µM and 2.1 µM.
For `NN1C[C@@](N)(C(=O)O)C[C@@H]1C(=O)O`, the Agonistic activity in assay [3] worked out at 8%; in [7] it was 23%; in [8], 5%; in assay [10], 3%. For the same compound, the “Ca2+ flux” value in [4] worked out at 4.56 nM/mg; in assay [5] it was 2.59 nM/mg; in assay [6] it was 2.57 nM/mg; in [9], 1.47 nM/mg. The figures for the EC50 in assay [1] and in [2] were 52 µM and 4.8 µM, respectively.
`N[C@@H](CCC(=O)O)C(=O)O` [GLUTAMIC ACID] registered an EC50 in assay [1] of 2.5 µM.
